# Laboratory results from patent US12600742B2, “Markers, conjugates, compositions and methods for hypoxia imaging, mapping, and therapy” (WWIKY BIOSCIENCES INC., priority 2017, dated 2026).
# Legend:
# FaDu tumors = test: In vivo evaluation of radiosensitization therapy by IAZA using click mapping; parameters: species or system Nu/Nu mice
# Description: Tissue sections were air dried for 25 minutes, fixed for 5 minutes in −20° C. acetone; air dried 25 minutes and blocked in PBS with 1% BSA for 20 minutes. Sections were incubated with primary antibodies for small vessel endothelium [1:100 rabbit anti-CD34 (abcam)] or hypoxia [1:100 rabbit anti-pimonidazole Hypoxyprobe)] for 2 hours at room temperature, followed by 3 five minute washes in 1×PBS. The secondary antibody (Alexafluor 647 goat anti-rabbit 1:1000 Molecular Probes with 1×DAPI to stain DNA) was incubated for 30 minutes at […] room temperature in the dark, followed by 3 five minute washes with 1×PBS. The Click-IT reaction cocktail was incubated with the sections for 30 minutes. Sections were washed 5 times with 1×PBS for 5 minutes and mounted using Mowiol 4-88 (Calbiochem) mounting media. Slides were stored at 4° C. until imaged. Images were obtained by tile scan with a Plan-Apochromat 10X/0.45 numerical aperture lens on a Zeiss 710 confocal microscope using Zen 2011 software. […]
# Male Nu/Nu mice (Charles River Laboratories) aged 6 weeks were used and cared for according to the CCAC guidelines. […] The tumors were measured daily until the volume reached 0.4 cm3. […] Temperature and respiration were monitored and recorded every five minutes throughout the scans (Small animal Monitoring and Gating System, SA Instruments Inc.). […] Animals were monitored and tumors measured for up to 16 days. […]
# [1] = tested on: human and murine cancer cell lines; settings: literature; cited from earlier work
# FaDu cells [2] = test: Comparison of hypoxia selective uptake of ACN and Pimonidazole in vitro; type: cell-based, human
# Description: FaDu cells were grown on coverslips (as described above) and treated simultaneously with 100 μM ACN and 100 μM Pimonidazole. The cells were subsequently exposed to normoxic (20% Oxygen), hypoxic (1% Oxygen) or anoxic (0% Oxygen) conditions for 6 hours, and fixed in 2% PFA. Standard Pimonidazole IHC was performed as described elsewhere using an Alexafluor 647 labelled secondary antibody. Click chemistry was performed as previously described using an Alexafluor 555 conjugated alkyne followed by nuclear staining with Hoechst. Mounted coverslips on glass slides were imaged as described earlier.
# FaDu xenograft tumors = test: Assessment of ACN as a hypoxia tracer in tumor-bearing mice; type: in vivo, BALB/c nude mice; settings: 80 mg/Kg intraperitoneally, 2 hours post-injection
# Description: Female BALB/c nude mice (Charles River Laboratories) aged 6 weeks were used and cared for according to the CCAC guidelines. We used a biflanked sub-cutaneous tumor model where the tumor in the left flank was untreated (control) and the tumor in the right flank served as the ‘treatment’ group. We subcutaneously injected 6×10^6 FaDu cells in 0.1 ml of sterile 0.9% NaCl into the upper right flank to form palpable tumors. The tumors were measured daily until the volume reached 10 mm3. The mice were divided into 4 groups and injected intraperitoneally in 0.15 ml 0.9% saline with: 1-80 mg/Kg ACN, 2-80 mg/Kg pimonidazole (Hypoxyprobe), 3-80 mg/Kg ACN:pimonidazole in a 1:1 ratio and 4-0.9% saline control. Mice were sacrificed 2 hours post-injection, tumors removed and frozen in OCT. Seven micron serial sections were taken of each tumor, dried and stored at −80° C.
# Tissue sections were air dried for 25 minutes, fixed for 5 minutes in −20° C. acetone; air dried 25 minutes and blocked in PBS with 1% BSA for 20 minutes. Sections were incubated with primary antibodies for small vessel endothelium [1:100 rabbit anti-CD34 (abcam)] or hypoxia [1:100 rabbit anti-pimonidazole Hypoxyprobe)] for 2 hours at room temperature, followed by 3 five minute washes in 1×PBS. […]
# FaDu cells [3] = test: Crystal violet staining (CVS) assay; type: cell-based, human
# Description: FaDu cells (3000 cells/well) were seeded on 96-well microtitre plates and were incubated overnight at 37° C. with 5% CO2 to get attached to the surface. Next day, the cells were treated with increasing doses of drug (1-100 μM) and the plates were incubated under normoxic (20% O2) and hypoxic (0.1% O2) conditions for 72 hours. Culture medium (DMEM and low glucose DMEM) without cells was set for background, according to the experimental set up. After the required incubation period, the media was aspirated, and the plates were allowed to dry for a few minutes followed by addition of crystal violet solution for 20 minutes in order to stain the cells. Subsequently, the dye was discarded, plates were washed with water and let to dry overnight. Methanol (150 μL) was added to the wells and incubated for 20 minutes, so as to dissolve the crystals. Absorbance of the samples was measured spectrophotometrically using an ELISA plate reader at a wavelength of 520 nm. The absorbance of background wavelength (media only) was subtracted from the other absorbance results.
# FIG. 10 depicts hypoxic selective cytotoxicity of A-TPZ. […] In CVS assay (i), FaDu cells (3000 cells/well) were seeded on 96 well plates and were incubated overnight to adhere. The cells were then treated with increasing doses of A-TPZ and the plates were exposed to both normoxic (20% O2) and hypoxic (0.1% O2) conditions for 72 hours. Culture medium (DMEM) without cells was set for background. Media was aspirated post-treatment followed by addition of crystal violet solution to stain the cells. Crystals were dissolved using methanol and absorbance of the samples was measured spectrophotometrically. Error bars represent the standard error of the mean. In CFA, (ii), FaDu cells (optimum density-ranging from 300 to 3000 cells) were seeded on 60 mm plates and were incubated overnight to adhere. Next day, the cells were treated with increasing A-TPZ doses and the plates were exposed to both normoxic (20% O2) and hypoxic (0.5% O2) conditions for 24 hours. […] Colonies were stained with crystal violet solution and counted. […]
# FaDu cells [4] = test: Hypoxia-selective sub-cellular localization of A-TPZ, click chemistry; type: cell-based, human
# Description: FaDu cells (˜0.5 million) were seeded on coverslips in 30 mm dishes and were incubated overnight at 37° C. with 5% CO2 to get attached to the surface. Cells were then treated with increasing concentrations (1-30 μM) of drug (reconstituted in DMSO at concentration of 0.5 M) and were incubated under normoxic and hypoxic (<0.1% O2) conditions for 24 hours. Post-treatment, cells were fixed with 2% paraformaldehyde for 20 minutes followed by blocking and permeabilization in 1% BSA and 0.1% Triton-X-100 for 20 minutes. Click reaction was performed in the presence of Alexa 594 alkyne using the Click-iT Cell Reaction Buffer Kit (Thermo Fisher Scientific, no: C10269), according to manufacturer's protocol. Nuclei were counterstained with Hoechst, and images were obtained using confocal microscopy.
# FaDu cells were seeded on coverslips and were incubated overnight to adhere. The cells were then treated with increasing doses of A-TPZ for 24 hours under normoxic and hypoxic (<0.1% O2) conditions. Cells were fixed in 2% paraformaldehyde and Click chemistry was performed at room temperature for 30 minutes using Alexa 594 alkyne. Nuclei were counterstained with Hoechst, and images were obtained using confocal microscopy.
structure (smiles),measurement,setting,value
O=[N+]([O-])c1nccn1[C@@H]1O[C@H](C[125I])[C@@H](O)[C@@H]1O [IAZA],"effect on tumor and hypoxia, IAZA and radiation co-treated",FaDu tumors; 400 mg/Kg IAZA + single dose of 10 Gy radiation,both tumor shrinkage and reduced hypoxia
same,"effect on tumor hypoxia, IAZA alone","FaDu tumors; 400 mg/Kg IAZA intraperitoneally, no radiation, ACN click mapping",had no effect on hypoxia
same,toxicity to cancer cell lines (reported),[1],low toxicity
same,uptake by cells (reported),[1],selectively taken up by hypoxic cells
"O=[N+]([O-])c1nccn1CC(O)CN1CCCCC1 (stereo not shown) [Pimonidazole, reference compound]",staining detected by oxygen condition,"FaDu cells [2]; 100 μM of each compound, 6 h",detected in oxygen deprived cells
same,sub-cellular distribution of signal,"FaDu cells [2]; hypoxic <0.1% O2 cells, 100 μM",mostly concentrated in the cytoplasm
same,localization in tumor sections,FaDu xenograft tumors,co-localize to hypoxic areas bordering necrotic regions
"[N-]=[N+]=NCCOCCNc1n[n+]([O-])c2ccccc2[n+]1[O-] [A-TPZ, 3-(2-(2-Azidoethoxy)ethyl)amino-1,2,4-benzotriazine 1,4-dioxide]",cytotoxicity under hypoxia (CVS),"FaDu cells [3]; 0.1% O2, 72 hours, 1-100 μM",selective cytotoxicity in low oxygen levels
same,toxicity in the normoxic group (CVS),"FaDu cells [3]; 20% O2, 72 hours",minimal toxicity
same,toxicity compared to parent compound TPZ,FaDu cells [3]; data not shown,slightly less toxic
same,dose dependence of signal intensity,"FaDu cells [4]; 1-30 μM, hypoxia",dose-dependent
same,click fluorescence localization in hypoxic cells,"FaDu cells [4]; hypoxia (<0.1 O2), 24 hours, 1-30 μM",selective sub-cellular localization
same,click fluorescence in normoxic drug treated cells,"FaDu cells [4]; normoxic, 24 hours",No fluorescence
